{"source": "patent US9167837B2", "about": "“Peptides imparting umami, salt, dairy and bitter flavor” (International Flavors & Fragrances Inc., priority 2007, dated 2015)", "key": {"[1]": {"assay": "Addition of flavor active peptide to unflavored cheese sauce, evaluation of imparted flavor", "conditions": "0.015% (w/w based) peptide added to unflavored cheese sauce of Table 1", "description": "Addition of the Gly-Pro-Phe-Pro-Ile (SEQ ID NO:2) peptide to the unflavored cheese sauce listed in Table 1 was carried out to evaluate the flavor imparted by the flavor active peptide. The cheese sauce formulation can be described as having a mild, Monterey Jack cheese sauce flavor with some salty and savory notes."}, "[2]": {"assay": "Addition of flavor active peptide to seasoned microwave popcorn, evaluation of imparted flavor", "conditions": "approximately 0.1% peptide in popped microwave popcorn with White Cheddar Snack Seasoning (Table 3)", "description": "Addition of the Gly-Pro-Phe-Pro-Ile (SEQ ID NO:2) peptide to the base microwave popcorn listed in Table 2 was carried out to evaluate the flavor imparted by the flavor active peptide.\nThe sodium content of the resulting seasoned popcorn was 596.6 mg Na^+/1 oz serving."}}, "data": [{"substance": "Gly-Pro-Phe-Pro-Ile (GPFPI) [Gly-Pro-Phe-Pro-Ile (SEQ ID NO:2)]", "values": [{"measurement": "flavor imparted by the flavor active peptide", "setting": "[1]", "result": "made the sauce taste more salty, creamy and dairy"}, {"measurement": "flavor imparted by the flavor active peptide", "setting": "[2]", "result": "imparted an increase in cheesyness, mouthfeel, and some umami character"}]}]}
